Source: PubChem BioAssay (NCI)
Where “and” joins values, the source holds several entries; their conditions need not be identical. Equal entries are not always repeated.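 Protocol summary: plate cells (96-well), add compound at 5 concentrations, incubate 48 h, interpolate endpoints linearly. Here, GI50 denotes the concentration required for 50% inhibition of growth. The concentration for full growth arrest is given as TGI.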

Columns and labels:
Assay in all cases: NCI anticancer screen, dose series, 48 h
MDA-MB-435 = system: MDA-MB-435
SW-620 colon = system: SW-620 colon
OVCAR-4 ovarian = system: OVCAR-4 ovarian
PC-3 prostate = system: PC-3 prostate
SNB-75 CNS = system: SNB-75 CNS
OVCAR-5 ovarian = system: OVCAR-5 ovarian
SNB-19 CNS = system: SNB-19 CNS
UACC-62 melanoma = system: UACC-62 melanoma
A498 renal = system: A498 renal
NCI-H23 lung = system: NCI-H23 lung

Structure (SMILES) | TGI (MDA-MB-435) [µM] | TGI (SW-620 colon) [µM] | TGI (OVCAR-4 ovarian) [µM] | TGI (PC-3 prostate) | TGI (SNB-75 CNS) | TGI (OVCAR-5 ovarian) [µM] | TGI (SNB-19 CNS) [µM] | TGI (UACC-62 melanoma) | TGI (A498 renal) [µM] | TGI (NCI-H23 lung) | GI50 (MDA-MB-435) | GI50 (SW-620 colon) | GI50 (OVCAR-4 ovarian) | GI50 (PC-3 prostate) | GI50 (SNB-75 CNS) | GI50 (OVCAR-5 ovarian) | GI50 (SNB-19 CNS) | GI50 (UACC-62 melanoma) | GI50 (A498 renal) [µM] | GI50 (NCI-H23 lung)
CC1=C(C)C(=O)O[C@@H]([C@](C)(O)[C@]2(O)CC[C@@]3(O)[C@@H]4C[C@H](O)[C@]5(O)[C@@H](O)C=CC(=O)[C@]5(C)[C@H]4CC[C@]23C)C1 | > 100 | > 100 | > 100 | > 100 µM | > 100 µM | > 100 | > 100 | > 100 µM | > 100 | > 100 µM | – | – | – | – | – | – | – | – | – | –
COc1ccc(NC2=C(I)C(=O)c3ncccc3C2=O)cc1 | 0.628 | 3.06 | 2.35 | 7.99 µM | 2.77 µM | 3.15 | 3.29 | 3.4 µM | 3.28 | 1.68 µM | 0.253 µM | 1.13 µM | 1.12 µM | 0.972 µM | 1.4 µM | 1.69 µM | 1.18 µM | 1.66 µM | 1.74 | 0.327 µM
CCc1cnn2c(NCc3ccc[n+]([O-])c3)cc(N3CCCC[C@H]3CCO)nc12 | – | > 100 | – | 0.0792 µM and 0.111 µM | < 0.0145 µM and 0.00437 µM | > 35.7 | > 100 | 0.0307 µM and 0.0168 µM | 0.00904 | 0.0174 µM and 0.0214 µM | < 0.01 µM and 0.00331 µM | < 0.01 µM and 0.00322 µM | < 0.0105 µM and 0.00798 µM | < 0.0132 µM and 0.00762 µM | < 0.01 µM and 0.00174 µM | < 0.01 µM and 0.00492 µM | < 0.0107 µM and 0.00366 µM | < 0.01 µM and 0.00345 µM | 0.0029 | < 0.01 µM and 0.00416 µM
N#Cc1c(NC(=O)c2ccc(F)cc2)sc2c1CCCC2 | > 25 | > 25 | > 25 | > 25 µM | > 25 µM | > 25 | > 25 | > 25 µM | > 25 | > 25 µM | > 25 µM | > 25 µM | > 25 µM | > 25 µM | > 25 µM | > 25 µM | > 25 µM | > 25 µM | > 25 | > 25 µM
COc1ccc2c3c1OC1C(OC)(OC)C=C[C@@]4(Br)[C@@H](C2)N(CC2CC2)CC[C@]314 (stereo partly drawn) | > 100 | > 100 | > 100 | > 100 µM | > 100 µM | > 100 | > 100 | > 100 µM | > 100 | > 100 µM | – | – | – | – | – | – | – | – | – | –
N#CC(C#N)=C1CCOc2ccc(F)cc21 | > 100 | > 100 | 27.8 | 26.8 µM | 81.9 µM | 39.9 | 96.1 | 28.9 µM | 49.9 | 28.7 µM | > 100 µM | 29.6 µM | 14.6 µM | 13.9 µM | 22.7 µM | 16.4 µM | 27.3 µM | 11.3 µM | 23 | 14.8 µM
COc1cc(-c2nc3sc(C)cn3c2/C=C2\C(=O)Nc3ccccc32)c(Br)c(OC)c1OC | 23.2 | > 100 | > 100 | > 100 µM | 51.5 µM | > 100 | 63.9 | > 100 µM | 63.5 | > 100 µM | 4.88 µM | 30.6 µM | 44.1 µM | 32.2 µM | 22.2 µM | 55.9 µM | 23.9 µM | 34 µM | 29 | 30.9 µM
